In ChEMBL document CHEMBL1159249, “Malyngamide H, an ichthyotoxic amide possessing a new carbon skeleton from the Caribbean cyanobacterium Lyngbya majuscula” (J Nat Prod, 1995):
Values after ≈ are worked out from the molar mass of the structure shown.

Columns and labels:
Type in all cases: organism-based
[1] = Ichthyotoxicity in gold fish assessed as death after 1 hr; conditions: carassius auratus, in vivo
Carassius auratus = experiment: Ichthyotoxicity in gold fish assessed as inability to swim after 1 hr
Artemia = experiment: Toxicity in brine shrimp; conditions: in vivo

## C=C(CCNC(=O)CC/C=C/C[C@H](CCCCCCC)OC)[C@@]12O[C@@H]1CC=C(C)C2=O [MALYNGAMIDE H]
[1]
  LC50 at 1 h: 5 µg/mL (≈ 11.6 µM)
Carassius auratus
  EC50: 2 µg/mL (≈ 4.63 µM)
Artemia
  Activity: Not Active
